Like-named read-outs stand apart in the source and are kept apart here. Some results are limits rather than exact numbers.

Test [1] deals with Mycosphaerella graminicola; Anamorph: Septoria tritici. Briefly: Leaf Blotch of Wheat (SEPTTR) fungicidal activity on wheat seedlings. Format: in vivo. To be noted: Zymoseptoria tritici; for pest or weed control at 121.5 g/ha: Low Volume, 121.5 g/H; for pest or weed control at 100 ppm: High Volume. The method, then:
Example A: Evaluation of Fungicidal Activity: Leaf Blotch of Wheat (Mycosphaerella graminicola; Anamorph: Septoria tritici; Bayer code […]): Technical grades of materials were dissolved in acetone, which were then mixed with nine volumes of water (H2O) containing 110 ppm Triton X-100. The fungicide solutions were applied onto wheat seedlings using an automated booth sprayer to run-off. All sprayed plants were allowed to air dry prior to further handling. All fungicides were evaluated using the aforementioned method for their activity vs. all target diseases, unless stated otherwise. Wheat leaf blotch and brown rust activity were also evaluated using track spray applications, in which case the fungicides were formulated as EC formulations, containing 0.1% Trycol 5941 in the spray solutions. Wheat plants (variety Yuma) were grown from seed in a greenhouse in 50% mineral soil/50% soil-less Metro mix until the first leaf was fully emerged, with 7-10 seedlings per pot. These plants were inoculated with an aqueous spore suspension of Septoria tritici either prior to or after fungicide treatments. After inoculation the plants were kept in 100% relative humidity (one day in a dark dew chamber followed by two to three days in a lighted dew chamber at 20° C.) to permit spores to germinate and infect the leaf. The plants were then transferred to a greenhouse set at 20° C. for disease to develop. When disease symptoms were fully expressed on the 1st leaves of untreated plants, infection levels were assessed on a scale of 0 to 100 percent disease severity. Percent disease control was calculated using the ratio of disease severity on treated plants relative to untreated plants.

In test [2] the test system is Puccinia triticina; Synonym: Puccinia recondita f sp. tritici. The experiment in a line: Wheat Brown Rust (PUCCRT) fungicidal activity on wheat seedlings. Format: in vivo. To be noted: for pest or weed control at 121.5 g/ha: Low Volume, 121.5 g/H; for pest or weed control at 100 ppm: High Volume. The method, then:
Technical grades of materials were dissolved in acetone, which were then mixed with nine volumes of water (H2O) containing 110 ppm Triton X-100. The fungicide solutions were applied onto wheat seedlings using an automated booth sprayer to run-off. All sprayed plants were allowed to air dry prior to further handling. All fungicides were evaluated using the aforementioned method for their activity vs. all target diseases, unless stated otherwise. Wheat leaf blotch and brown rust activity were also evaluated using track spray applications, in which case the fungicides were formulated as EC formulations, containing 0.1% Trycol 5941 in the spray solutions. Wheat plants (variety Yuma) were grown from seed in a greenhouse in 50% mineral soil/50% soil-less Metro mix until the first leaf was fully emerged, with 7-10 seedlings per pot. These plants were inoculated with an aqueous spore suspension of Septoria tritici either prior to or after fungicide treatments. After inoculation the plants were kept in 100% relative humidity (one day in a dark dew chamber followed by two to three days in a lighted dew chamber at 20° C.) to permit spores to germinate and infect the leaf. The plants were then transferred to a greenhouse set at 20° C. for disease to develop. When disease symptoms were fully expressed on the 1st leaves of untreated plants, infection levels were assessed on a scale of 0 to 100 percent disease severity. Percent disease control was calculated using the ratio of disease severity on treated plants relative to untreated plants. Example B: Evaluation of Fungicidal Activity: Wheat Brown Rust (Puccinia triticina; Synonym: Puccinia recondita f sp. tritici; Bayer code PUCCRT): Wheat plants (variety Yuma) were grown from seed in a greenhouse in 50% mineral soil/50% soil-less Metro mix until the first leaf was fully emerged, with 7-10 seedlings per pot. These plants were inoculated with an aqueous spore suspension of Puccinia triticina either prior to or after fungicide treatments. After inoculation the plants were kept in a dark dew room at 22° C. with 100% relative humidity overnight to permit spores to germinate and infect the leaf. The plants were then transferred to a greenhouse set at 24° C. for disease to develop. Fungicide formulation, application and disease assessment followed the procedures as described in the Example A.

Setting [3] is: 24 h, 1 Day Protectant, read-out: SEPTTR 1DP disease control.
Where [4] appears, read: 72 h, 3 Day Curative, read-out: SEPTTR 3DC disease control.
Where [5] appears, read: 24 h, 1 Day Protectant, read-out: PUCCRT 1DP disease control.
Setting [6] is: 72 h, 3 Day Curative, read-out: PUCCRT 3DC disease control.

Regarding `COc1ccnc(C(=O)NCC(=O)O[C@@H](C)C(c2ccc(F)cc2)c2ccc(F)cc2)c1OC(C)=O` [Cmpd 187], the pest or weed control at 121.5 g/ha in test [1] (setting [3]) is below 80%; in test [1] (setting [4]), below 80%; in test [2] (setting [5]), above 80%; in test [2] (setting [6]), below 80%.

With `COc1ccnc(C(=O)N[C@@H](C)C(=O)O[C@@H](C)C(O)(c2ccc(Cl)c(Cl)c2)c2ccc(Cl)c(Cl)c2)c1O` [Cmpd 127], the pest or weed control at 100 ppm in test [1] (setting [3]) and in test [2] (setting [5]) was below 80% each time.

For the compound `COc1ccnc(C(=O)N[C@@H](C)C(=O)O[C@@H](C)[C@@H](c2ccccc2)c2ccc(F)cc2)c1OC(C)=O` [Cmpd 204], the pest or weed control at 121.5 g/ha in test [1] (setting [3]), in test [1] (setting [4]), in test [2] (setting [5]) and in test [2] (setting [6]) was above 80% in each case.

In the case of `CCc1ccc(C(c2ccc(CC)cc2)[C@H](C)OC(=O)[C@H](C)NC(=O)c2nccc(OC)c2O)cc1` [Cmpd 124], the pest or weed control at 100 ppm in test [1] (setting [3]), in test [1] (setting [4]), in test [2] (setting [5]) and in test [2] (setting [6]) was above 80% in each case.

On to `COc1ccnc(C(=O)N[C@@H](C)C(=O)O[C@@H](C)C(c2cccc(F)c2)c2cccc(F)c2)c1OC(C)=O` [Cmpd 156], for which the pest or weed control at 121.5 g/ha in test [1] (setting [3]), in test [1] (setting [4]), in test [2] (setting [5]) and in test [2] (setting [6]) was above 80% each time.

As to `COc1ccnc(C(=O)N[C@@H](C)C(=O)O[C@@H](C)C(c2ccc(C)cc2)c2ccc(C)cc2)c1O` [Cmpd 105], the pest or weed control at 100 ppm in test [1] (setting [3]), in test [1] (setting [4]), in test [2] (setting [5]) and in test [2] (setting [6]) was above 80% throughout.

For the compound `COc1ccnc(C(=O)N[C@@H](C)C(=O)O[C@@H](C)C(c2ccc(C)s2)c2ccc(C)s2)c1OC(C)=O` [Cmpd 166], the pest or weed control at 121.5 g/ha in test [1] (setting [3]), in test [1] (setting [4]) and in test [2] (setting [5]) was below 80% each time.

For the compound `COc1ccnc(C(=O)N[C@@H](C)C(=O)O[C@@H](C)C(c2ccc(Br)cc2)c2ccc(Br)cc2)c1OC(C)=O` [Cmpd 165], the pest or weed control at 121.5 g/ha in test [1] (setting [3]) was above 80%; in test [1] (setting [4]) it was above 80%; in test [2] (setting [5]) it was above 80%; in test [2] (setting [6]) it was below 80%.

On to `COc1ccnc(C(=O)N[C@@H](C)C(=O)O[C@@H](C)C(F)(c2ccccc2)c2ccccc2)c1OCOC(C)=O` [Cmpd 153], for which the pest or weed control at 121.5 g/ha in test [1] (setting [3]) is above 80%; in test [1] (setting [4]), above 80%; in test [2] (setting [5]), below 80%; in test [2] (setting [6]) it was below 80%.

`COc1ccnc(C(=O)N[C@@H](C)C(=O)O[C@@H](C)C(O)(c2ccc(Cl)cc2F)c2ccc(Cl)cc2F)c1OCOC(C)=O` [Cmpd 193]: the pest or weed control at 121.5 g/ha is above 80% in test [1] (setting [3]), above 80% in test [1] (setting [4]) and below 80% in test [2] (setting [5]).

Turning to `COc1ccnc(C(=O)N[C@@H](C)C(=O)O[C@@H](C)C(c2ccc(F)c(C)c2)c2ccc(F)c(C)c2)c1OCOC(C)=O` [Cmpd 220], the pest or weed control at 121.5 g/ha in test [1] (setting [3]) is above 80%; in test [1] (setting [4]) it was above 80%; in test [2] (setting [5]) it was above 80%; in test [2] (setting [6]), below 80%.

Consider `COc1ccnc(C(=O)N[C@@H](C)C(=O)O[C@@H](C)C(c2cccc(Cl)c2)c2cccc(Cl)c2)c1OCOC(C)=O` [Cmpd 160], for which the pest or weed control at 121.5 g/ha in test [1] (setting [3]) was above 80%; in test [1] (setting [4]) it was above 80%; in test [2] (setting [5]), above 80%; in test [2] (setting [6]) it was below 80%.

Take `COc1ccnc(C(=O)N[C@@H](C)C(=O)O[C@@H](C)C(OC)(c2ccccc2)c2ccccc2)c1OCOC(C)=O` [Cmpd 149]: the pest or weed control at 121.5 g/ha is above 80% in test [1] (setting [3]), above 80% in test [1] (setting [4]), below 80% in test [2] (setting [5]) and below 80% in test [2] (setting [6]).

For the compound `COc1ccc(C(c2ccc(OC)cc2)[C@H](C)OC(=O)[C@H](C)NC(=O)c2nccc(OC)c2OCOC(C)=O)cc1` [Cmpd 158], the pest or weed control at 121.5 g/ha in test [1] (setting [3]), in test [1] (setting [4]), in test [2] (setting [5]) and in test [2] (setting [6]) was above 80% each time.

Consider `COc1ccnc(C(=O)N[C@@H](C)C(=O)OC(C)C2c3ccccc3Oc3ccccc32)c1O` (stereo partly drawn) [Cmpd 102], for which the pest or weed control at 100 ppm in test [1] (setting [3]), in test [1] (setting [4]) and in test [2] (setting [5]) was below 80% throughout.

For `COc1ccccc1C(c1ccccc1OC)[C@H](C)OC(=O)[C@H](C)NC(=O)c1nccc(OC)c1OCOC(C)=O` [Cmpd 191], the pest or weed control at 121.5 g/ha in test [1] (setting [3]), in test [1] (setting [4]), in test [2] (setting [5]) and in test [2] (setting [6]) was above 80% each time.

As to `CCOCC(=O)OCOc1c(OC)ccnc1C(=O)N[C@@H](C)C(=O)O[C@@H](C)C(c1ccc(F)cc1)c1ccc(F)cc1` [Cmpd 212], the pest or weed control at 121.5 g/ha in test [1] (setting [3]), in test [1] (setting [4]), in test [2] (setting [5]) and in test [2] (setting [6]) was above 80% throughout.

As to `COc1ccnc(C(=O)N[C@@H](C)C(=O)O[C@@H](C)C(c2ccc(F)c(Cl)c2)c2ccc(F)c(Cl)c2)c1OC(C)=O` [Cmpd 216], the pest or weed control at 121.5 g/ha in test [1] (setting [3]) was above 80%; in test [1] (setting [4]), below 80%; in test [2] (setting [5]), above 80%; in test [2] (setting [6]) it was below 80%.

For `COc1ccnc(C(=O)N[C@@H](C)C(=O)O[C@@H](C)C(c2ccc(C)c(Cl)c2)c2ccc(C)c(Cl)c2)c1O` [Cmpd 121], the pest or weed control at 100 ppm is above 80% in test [1] (setting [3]), above 80% in test [1] (setting [4]), above 80% in test [2] (setting [5]) and below 80% in test [2] (setting [6]).

For `COc1ccnc(C(=O)N[C@@H](C)C(=O)O[C@@H](C)C(O)(c2ccccc2)c2ccccc2)c1OCOC(C)=O` [Cmpd 138], the pest or weed control at 121.5 g/ha was above 80% in test [1] (setting [3]), below 80% in test [1] (setting [4]) and below 80% in test [2] (setting [6]).

`COc1ccnc(C(=O)N[C@@H](C)C(=O)O[C@@H](C)C(c2ccc(F)c(F)c2)c2ccc(F)c(F)c2)c1OC(C)=O` [Cmpd 215]: the pest or weed control at 121.5 g/ha in test [1] (setting [3]), in test [1] (setting [4]) and in test [2] (setting [5]) was above 80% throughout.

For the compound `COc1ccnc(C(=O)N[C@@H](C)C(=O)O[C@@H](C)C(c2ccc(F)cc2)c2ccc(F)cc2)c1OCOC(=O)C(C)C` [Cmpd 211], the pest or weed control at 121.5 g/ha in test [1] (setting [3]), in test [1] (setting [4]), in test [2] (setting [5]) and in test [2] (setting [6]) was above 80% in each case.

`C[C@H](NC(=O)c1ncccc1O)C(=O)O[C@@H](C)C(c1ccc(F)cc1)c1ccc(F)cc1` [Cmpd 110]: the pest or weed control at 100 ppm in test [1] (setting [3]), in test [1] (setting [4]) and in test [2] (setting [5]) was above 80% throughout.
